# Test results published in patent publication US9980943B2, “Methods of treating muscular dystrophy” (BOARD OF REGENTS OF THE NEVADA SYSTEM OF HIGHER EDUCATION, …, priority 2013, dated 2018).
# Assays:
# Assay type in all cases: cell-based, mouse
# [1] = test system: α7 integrin (LacZ reporter in α7+/LacZ myotubes); assay: Myotube α7 integrin FDG assay (Burkin assay in myotubes, 96-well); conditions: myotubes
# [2] = test system: β-galactosidase in CMV-LacZ C2C12 myotubes; assay: CMV-LacZ secondary screen in C2C12 myotubes (β-Gal stabilizing assay); conditions: C2C12 CMV-LacZ myotubes, fold relative to DMSO
# Summary of the method: (§1)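 β-gal stabilization was measured in C2C12 myoblasts or myotubes stably transfected with a CMV-driven LacZ construct, using the FDG β-gal assay. Compounds were tested in dose-response at 0.5, 1, 5, 10, 20 and 40 μM, with two replicates per point.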
# [3] = test system: α7 integrin (LacZ reporter in α7βgal+/− myoblasts); assay: Myoblast α7+/LacZ integrin FDG assay (Burkin assay in myoblasts, 96-well); conditions: α7+/LacZ myoblasts, 96-well
# [4] = test system: β-galactosidase in CMV-LacZ C2C12 myoblasts; assay: CMV-LacZ secondary screen in C2C12 myoblasts (β-Gal stabilizing assay); conditions: CMV-LacZ C2C12 myoblasts
# Summary of the method: as §1
SMILES,"Burkin Assay in Myotubes, α7 integrin LacZ reporter signal relative to DMSO ([1]; 0.5 uM)","Burkin Assay in Myotubes, α7 integrin LacZ reporter signal relative to DMSO ([1]; 1 uM)","Burkin Assay in Myotubes, α7 integrin LacZ reporter signal relative to DMSO ([1]; 5 uM)","Burkin Assay in Myotubes, α7 integrin LacZ reporter signal relative to DMSO ([1]; 10 uM)","Burkin Assay in Myotubes, α7 integrin LacZ reporter signal relative to DMSO ([1]; 20 uM)","Burkin Assay in Myotubes, α7 integrin LacZ reporter signal relative to DMSO ([1]; 40 uM)","CMV-LACZ in Myotubes, signal relative to DMSO ([2]; 0.5 uM)","CMV-LACZ in Myotubes, signal relative to DMSO ([2]; 1 uM)","CMV-LACZ in Myotubes, signal relative to DMSO ([2]; 5 uM)","CMV-LACZ in Myotubes, signal relative to DMSO ([2]; 10 uM)","CMV-LACZ in Myotubes, signal relative to DMSO ([2]; 20 uM)","CMV-LACZ in Myotubes, signal relative to DMSO ([2]; 40 uM)","Burkin Assay in Myoblasts, signal relative to DMSO ([3]; 0.5 uM)","Burkin Assay in Myoblasts, signal relative to DMSO ([3]; 1 uM)","Burkin Assay in Myoblasts, signal relative to DMSO ([3]; 5 uM)","Burkin Assay in Myoblasts, signal relative to DMSO ([3]; 10 uM)","Burkin Assay in Myoblasts, signal relative to DMSO ([3]; 20 uM)","Burkin Assay in Myoblasts, signal relative to DMSO ([3]; 40 uM)",CMV-LACZ in Myoblasts (β-galactosidase activity relative to DMSO) ([4]; 0.5 uM),CMV-LACZ in Myoblasts (β-galactosidase activity relative to DMSO) ([4]; 1 uM),other results
COc1ccc(OC)c(NC(=O)CN2CCC(NC(=O)c3ccccc3C)CC2)c1 [MLS001212882-01],0.9814,1.023,0.9072,0.8877,0.8421,0.9107,1.0238,0.8705,1.0963,1.1133,1.1471,1.3024,1.0132,1.07,1.049,0.9069,1.068,1.048,1.1409,1.1291,CMV-LACZ in Myoblasts (β-galactosidase activity relative to DMSO) ([4]; 5 uM): 0.9792; CMV-LACZ in Myoblasts (β-galactosidase activity relative to DMSO) ([4]; 10 uM): 1.0086; CMV-LACZ in Myoblasts (β-galactosidase activity relative to DMSO) ([4]; 20 uM): 1.3230; CMV-LACZ in Myoblasts (β-galactosidase activity relative to DMSO) ([4]; 40 uM): 1.0326
COC(=O)c1ccccc1NC(=O)CSc1nc(O)c(-c2ccccc2)c(=O)[nH]1 [MLS000621451-01],0.9471,0.8932,0.9254,1.071,0.8327,1.024,1.1114,0.9295,1.0177,1.1398,0.9853,0.9695,1.065,1.018,1.066,1.114,1.0713,1.088,1.0388,1.1579,CMV-LACZ in Myoblasts (β-galactosidase activity relative to DMSO) ([4]; 5 uM): 0.9255; CMV-LACZ in Myoblasts (β-galactosidase activity relative to DMSO) ([4]; 10 uM): 1.3023; CMV-LACZ in Myoblasts (β-galactosidase activity relative to DMSO) ([4]; 20 uM): 1.2493; CMV-LACZ in Myoblasts (β-galactosidase activity relative to DMSO) ([4]; 40 uM): 1.1926
COc1ccccc1CC(=O)Nc1cc(S(=O)(=O)N2CCOCC2)ccc1N1CCOCC1 [MLS002170630-01],1.03,1.075,0.9697,1.123,0.8857,1.0714,0.8136,1.0036,1.2068,0.9248,0.9710,0.8580,1.122,0.9708,1.0982,1.216,0.7825,0.6735,0.9954,0.8054,CMV-LACZ in Myoblasts (β-galactosidase activity relative to DMSO) ([4]; 5 uM): 0.9890; CMV-LACZ in Myoblasts (β-galactosidase activity relative to DMSO) ([4]; 10 uM): 0.9628; CMV-LACZ in Myoblasts (β-galactosidase activity relative to DMSO) ([4]; 20 uM): 0.8233; CMV-LACZ in Myoblasts (β-galactosidase activity relative to DMSO) ([4]; 40 uM): 0.7387
